The values below come from patent publication US20100209542A1, “Methods For Treating Withdrawal From Addictive Compounds” (priority 2008, published 2010).

Some results are limits rather than exact numbers.

One series relates to opioid receptors. To be noted: guinea pig ileum, compared with morphine; cited from earlier work.
In a further series the test system is mice. The settings on record: cited from earlier work.
For series [1], the system named is morphine withdrawal symptoms. Kind of series: naloxone-precipitated morphine withdrawal symptoms after replacement with compound. To be noted: for Jumping Frequency / Last Day % Weight Control / Locomotor Activity / Paw Tremor Frequency / Teeth Chattering Frequency / Wet Dog Shakes Frequency: + 10 mg/kg naloxone i.p. It is filed as in vivo, mice. As for the experimental part: (§1) In this experiment mice were chronically administered either morphine using an increasing dose paradigm starting at 20 mg/kg and ending at 100 mg/kg (i.p.) or a saline vehicle control for six days. […] Morphine withdrawal symptoms were initiated by the injection of naloxone (10 mg/kg; i.p.). Kratom extract and mitragyine reduced naloxone-precipitated morphine withdrawal symptoms in a similar manner as methadone.

The subject of another series is withdrawal symptoms. Kind of series: compound followed by naloxone administration (control values). The series is classed as in vivo, mice. As for the experimental part: as §1
The target in the next series is T1, Adenosine A2A (Homo sapiens, UniProt P29274).
T1 construct: Novascreen Biosciences Corp
The series is described as follows: high throughput radioligand binding screen, Adenosine A2A.

The test system of the next series is Adrenergic (Alpha 2). The series is described as follows: high throughput radioligand binding screen, Adrenergic (Alpha 2).
A further series concerns the target T2, Dopamine D2 (Homo sapiens, UniProt P14416).
T2 construct: Novascreen Biosciences Corp
The series is described as follows: high throughput radioligand binding screen, Dopamine D2.

A further series has as its target T3, Serotonin, 5HT2C (Homo sapiens, UniProt P28335).
T3 construct: Novascreen Biosciences Corp
T3 sequence (P28335 33-458): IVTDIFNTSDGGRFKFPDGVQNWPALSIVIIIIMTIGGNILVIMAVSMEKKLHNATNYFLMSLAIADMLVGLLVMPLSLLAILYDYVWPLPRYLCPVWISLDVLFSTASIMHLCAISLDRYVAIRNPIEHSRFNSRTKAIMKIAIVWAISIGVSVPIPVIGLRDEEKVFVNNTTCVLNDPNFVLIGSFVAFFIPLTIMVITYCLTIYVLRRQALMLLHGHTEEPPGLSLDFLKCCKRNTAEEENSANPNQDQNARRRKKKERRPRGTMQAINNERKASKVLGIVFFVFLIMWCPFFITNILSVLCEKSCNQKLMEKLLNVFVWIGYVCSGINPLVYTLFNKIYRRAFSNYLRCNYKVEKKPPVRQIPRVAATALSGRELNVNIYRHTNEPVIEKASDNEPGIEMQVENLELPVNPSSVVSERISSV
Kind of series: high throughput radioligand binding screen, Serotonin 5HT2C.

In the next series the target is T4, Serotonin, 5HT7 (Homo sapiens, UniProt P34969).
T4 construct: Novascreen Biosciences Corp
Kind of series: high throughput radioligand binding screen, Serotonin 5HT7.

Series [2] is described as follows: mitragynine sample stability in validation of the detection method. To be noted: short-term (4 h at room temperature), freeze-thaw (3 cycles), post-processing (16 h at 12° C.); any concentration tested. From the text: The coefficient of variation and relative error values at the three concentrations were obtained in the intra- and inter-day assays. See, FIG. 3.

For the next series, the target named is T5, delta-opioid receptor (Cavia porcellus, UniProt A0A286XTF2).
T5 construct: determined using guinea pig brain membranes; from tissue; host or cells: guinea pig brain membranes
To be noted: guinea pig brain membranes; cited from earlier work.

A further series has as its system respiratory depression. The settings on record: rat, even at doses of 800 mg/kg, intraperitoneal; cited from earlier work.
The conditions of series [3]: animal studies; cited from earlier work.
Setting [4] is: morphine 20-100 mg/kg i.p., then compound 23 mg/kg p.o.
[5] abbreviates: morphine 20-100 mg/kg i.p., then compound 100 mg/kg p.o.
The mark [6] stands for this setting: no morphine, compound 23 mg/kg p.o. + 10 mg/kg naloxone i.p.
[7] abbreviates: no morphine, compound 100 mg/kg p.o. + 10 mg/kg naloxone i.p.
[8] abbreviates: morphine 20-100 mg/kg i.p. control, no replacement compound.
[9] abbreviates: morphine i.p. + 10 mg/kg naloxone i.p.
Where [10] appears, read: naloxone i.p. group, no morphine.

One may read the pKi as −log10 of the Ki, conventionally taken in molar units.

T2 sequence (P14416 whole entry): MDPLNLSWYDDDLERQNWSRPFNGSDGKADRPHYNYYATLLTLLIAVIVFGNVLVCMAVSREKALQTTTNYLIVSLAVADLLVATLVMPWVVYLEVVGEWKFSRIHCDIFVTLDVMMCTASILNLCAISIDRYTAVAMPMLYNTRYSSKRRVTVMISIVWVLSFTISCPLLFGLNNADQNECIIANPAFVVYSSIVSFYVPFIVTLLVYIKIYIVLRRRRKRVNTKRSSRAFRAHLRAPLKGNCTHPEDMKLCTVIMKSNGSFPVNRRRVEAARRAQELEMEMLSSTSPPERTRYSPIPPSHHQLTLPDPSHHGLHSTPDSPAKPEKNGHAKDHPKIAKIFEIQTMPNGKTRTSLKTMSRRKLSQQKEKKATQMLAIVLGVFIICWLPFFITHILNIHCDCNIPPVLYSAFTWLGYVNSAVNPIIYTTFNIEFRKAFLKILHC
T1 sequence (P29274 whole entry): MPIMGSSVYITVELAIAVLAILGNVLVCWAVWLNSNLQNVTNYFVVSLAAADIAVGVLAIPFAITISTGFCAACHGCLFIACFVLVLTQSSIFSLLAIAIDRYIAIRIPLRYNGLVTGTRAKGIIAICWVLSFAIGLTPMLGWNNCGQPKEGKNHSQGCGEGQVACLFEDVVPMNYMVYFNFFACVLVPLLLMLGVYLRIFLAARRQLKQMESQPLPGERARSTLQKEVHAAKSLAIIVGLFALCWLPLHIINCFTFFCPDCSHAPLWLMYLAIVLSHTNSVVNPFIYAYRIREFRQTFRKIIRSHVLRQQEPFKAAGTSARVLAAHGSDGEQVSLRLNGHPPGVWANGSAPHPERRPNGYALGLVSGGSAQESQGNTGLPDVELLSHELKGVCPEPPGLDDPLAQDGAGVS
T4 sequence (P34969 whole entry): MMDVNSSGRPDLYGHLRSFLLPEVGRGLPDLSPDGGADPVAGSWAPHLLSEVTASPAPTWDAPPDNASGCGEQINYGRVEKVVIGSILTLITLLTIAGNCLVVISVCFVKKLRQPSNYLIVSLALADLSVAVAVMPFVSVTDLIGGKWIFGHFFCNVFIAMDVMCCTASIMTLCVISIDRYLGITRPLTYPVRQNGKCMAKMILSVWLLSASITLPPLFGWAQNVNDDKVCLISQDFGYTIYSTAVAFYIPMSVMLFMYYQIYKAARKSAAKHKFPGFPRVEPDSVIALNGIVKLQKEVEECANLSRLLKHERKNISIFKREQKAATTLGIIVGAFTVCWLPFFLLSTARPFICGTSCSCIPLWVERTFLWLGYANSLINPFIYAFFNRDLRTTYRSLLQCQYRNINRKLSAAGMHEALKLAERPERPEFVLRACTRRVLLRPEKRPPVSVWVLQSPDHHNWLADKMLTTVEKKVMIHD
T5 sequence (A0A286XTF2 1-366): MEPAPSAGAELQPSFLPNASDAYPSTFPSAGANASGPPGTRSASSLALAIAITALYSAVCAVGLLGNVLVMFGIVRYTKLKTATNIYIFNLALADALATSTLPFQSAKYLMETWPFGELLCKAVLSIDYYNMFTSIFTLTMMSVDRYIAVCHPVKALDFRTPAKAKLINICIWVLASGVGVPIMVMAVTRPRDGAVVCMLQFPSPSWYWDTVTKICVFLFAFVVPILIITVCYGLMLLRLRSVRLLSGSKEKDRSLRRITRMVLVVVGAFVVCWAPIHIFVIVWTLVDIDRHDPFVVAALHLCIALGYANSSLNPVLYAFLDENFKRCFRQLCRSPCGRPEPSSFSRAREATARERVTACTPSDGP

For `CC[C@@H]1CN2CC[C@@]3(O)C(=Nc4cccc(OC)c43)[C@@H]2C[C@@H]1/C(=C\OC)C(=O)OC` [7-hydroxymitragynine], in the series with opioid receptors, the opioid agonist potency result was “higher potency than morphine”. Also, the antinociceptive activity entry in the series on mice is “potent antinociceptive activity”.
With `CCC(=O)C(CC(C)N(C)C)(c1ccccc1)c1ccccc1` (centres unmarked) [Methadone, methadone], in [1] (setting [4]), the “Jumping Frequency” value turned out to be 0.00 ± 0.00, the “Last Day % Weight Control” value was 100.1 ± 0.8121 %, the “Locomotor Activity” value is reported as 1866 ± 225.9 and the “Paw Tremor Frequency” value was 110.7 ± 8.809. For the same compound, in [1] (setting [4]), the “Teeth Chattering Frequency” value was 81.20 ± 8.704 and the “Wet Dog Shakes Frequency” value was 5.600 ± 0.9684. Moreover, in series [1] (setting [5]), the “Jumping Frequency” value is given as 1.111 ± 0.7536, the “Last Day % Weight Control” value came out at 100.1 ± 1.205 %, the “Locomotor Activity” value is 2512 ± 131.5 and the “Paw Tremor Frequency” value worked out at 8.444 ± 1.692. Besides, in series [1] (setting [5]), the “Teeth Chattering Frequency” value was found to be 0.00 ± 0.00 and the “Wet Dog Shakes Frequency” value amounted to 0.6667 ± 0.3333. Moreover, in the series on withdrawal symptoms (setting [6]), the “Jumping Frequency” value turned out to be 0.00 ± 0.00, the “Last Day % Weight Control” value was 96.64 ± 1.046 %, the “Locomotor Activity” value worked out at 2595 ± 288.4 and the “Paw Tremor Frequency” value is 6.400 ± 1.462. Besides, in the series with withdrawal symptoms (setting [6]), the “Teeth Chattering Frequency” value amounted to 0.00 ± 0.00 and the “Wet Dog Shakes Frequency” value is given as 2.000 ± 0.5164. Also, in the series with withdrawal symptoms (setting [7]), the “Jumping Frequency” value came to 0.00 ± 0.00, the “Last Day % Weight Control” value was found to be 98.30 ± 0.6976 %, the “Paw Tremor Frequency” value is 5.000 ± 1.549 and the “Teeth Chattering Frequency” value worked out at 0.00 ± 0.00. Further, the “Wet Dog Shakes Frequency” value in the series on withdrawal symptoms (setting [7]) is recorded as 1.900 ± 0.5859.
For the compound `CN1CC[C@]23c4c5ccc(O)c4O[C@H]2[C@@H](O)C=C[C@H]3[C@H]1C5` [Morphine, morphine], in series [1] (setting [8]), the “Jumping Frequency” value was determined as 21.6 ± 4.378, the “Last Day % Weight Control” value was 89.64 ± 0.6012 %, the “Locomotor Activity” value is 1870 ± 114.2 and the “Paw Tremor Frequency” value turned out to be 156.2 ± 7.124. Also, in series [1] (setting [8]), the “Teeth Chattering Frequency” value is listed as 76.10 ± 6.572 and the “Wet Dog Shakes Frequency” value is given as 9.433 ± 1.334. In the series on withdrawal symptoms (setting [9]), the “Jumping Frequency” value was found to be 21.6 ± 4.378, the “Last Day % Weight Control” value came to 89.64 ± 0.6012 %, the “Locomotor Activity” value came out at 1870 ± 114.2 and the “Paw Tremor Frequency” value stood at 156.2 ± 7.124. In addition, in the series with withdrawal symptoms (setting [9]), the “Teeth Chattering Frequency” value is 76.10 ± 6.572 and the “Wet Dog Shakes Frequency” value turned out to be 9.433 ± 1.334.
`C=CCN1CC[C@]23c4c5ccc(O)c4O[C@H]2C(=O)CC[C@@]3(O)[C@H]1C5` [Naloxone, naloxone]: in the series with withdrawal symptoms (setting [10]), the “Jumping Frequency” value turned out to be 1.800 ± 0.9978, the “Last Day % Weight Control” value is on record as 99.94 ± 1.225 %, the “Locomotor Activity” value stood at 3291 ± 145.3 and the “Paw Tremor Frequency” value is 3.800 ± 0.9978. In addition, in the series with withdrawal symptoms (setting [10]), the “Teeth Chattering Frequency” value is given as 0.00 ± 0.00 and the “Wet Dog Shakes Frequency” value was found to be 0.6000 ± 0.3399.
Take `CC[C@@H]1CN2CC[C@]3(Nc4cccc(OC)c4C3=O)[C@@H]2C[C@@H]1/C(=C\OC)C(=O)OC` [mitragynine pseudoindoxyl]: the opioid agonist potency entry with opioid receptors is on record as “higher potency than morphine”.
On to `CC[C@@H]1CN2CCc3c([nH]c4cccc(OC)c34)[C@@H]2C[C@@H]1/C(=C\OC)C(=O)OC` [mitragynine], for which, on Adenosine A2A, the “Percentage inhibition of radioligand binding” value (from here on “Percentage inhibition”) is recorded as “Adenosine A2A: 65.66”. The “Percentage inhibition” value in the series on Adrenergic (Alpha 2) was “Adrenergic (Alpha 2): 61.92”. Further, at Dopamine D2, the “Percentage inhibition” value is “Dopamine D2: 54.22”. For the same compound, the “Percentage inhibition” value on Serotonin, 5HT2C was “Serotonin, 5HT2C: 58.77”. Moreover, the “Percentage inhibition” value on Serotonin, 5HT7 was “Serotonin, 5HT7: 64.41”. Besides, the “naloxone-precipitated morphine withdrawal symptoms” value in series [1] (mice, p.o. for six days after morphine, in a similar manner as methadone) is “reduced”. In addition, in [1] (setting [4]), the “Jumping Frequency” value amounted to 0.00 ± 0.00, the “Last Day % Weight Control” value is 101.3 ± 0.8619 %, the “Locomotor Activity” value is listed as 2485 ± 119.1 and the “Paw Tremor Frequency” value is listed as 3.200 ± 0.7424. In series [1] (setting [4]), the “Teeth Chattering Frequency” value amounted to 0.00 ± 0.00 and the “Wet Dog Shakes Frequency” value came to 0.6000 ± 0.2667. For the same compound, in the series with withdrawal symptoms (setting [6]), the “Jumping Frequency” value is on record as 0.00 ± 0.00, the “Last Day % Weight Control” value is 98.85 ± 0.8938 %, the “Locomotor Activity” value is recorded as 3010 ± 108.1 and the “Paw Tremor Frequency” value came to 1.800 ± 0.6464. Further, in the series with withdrawal symptoms (setting [6]), the “Teeth Chattering Frequency” value stood at 0.00 ± 0.00 and the “Wet Dog Shakes Frequency” value is 0.00 ± 0.00. Further, the “sample stability, variation” value in series [2] is at most 15%. At delta-opioid receptor, the pKi is reported as 7.22±0.21. Moreover, the respiratory depression entry in the series with respiratory depression is recorded as “failed to identify respiratory depression”. Also, in series [3], the “analgesic and antitussive properties” value is “comparable to codeine”; the opioid withdrawal syndrome entry was “suppressed”; the “respiratory depression compared with codeine” value was “much less respiratory depression”.
